Measured values from patent publication US11236129B2, “IL-17A binding peptides and medical uses thereof” (Dompe' Farmaceutici S.P.A., priority 2018, dated 2022).
Read-outs that look alike come from different tables or passages of the source. Residues, ends and D or L forms follow the SMILES beside them.

Columns and labels:
[1] = target: IL-17RA/IL17RC dimerization induced by IL-17A (Homo sapiens, UniProt Q16552); experiment: IL-17RA/IL17RC dimerization assay in response to IL-17A (PathHunter Cytokine Receptor Assay); format: cell-based; settings: IL-17A at EC80; read-out: IC50 in IL-17RA/IL7RC dimerization assay
IL-17RA/IL17RC dimerization induced by IL-17A, sequence (Q16552 24-155): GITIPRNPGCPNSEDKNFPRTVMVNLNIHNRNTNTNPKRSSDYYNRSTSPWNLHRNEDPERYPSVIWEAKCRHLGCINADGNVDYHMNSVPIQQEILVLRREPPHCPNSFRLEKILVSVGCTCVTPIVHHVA
Method in brief: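 PathHunter cells with IL-17RA and IL-17RC tagged for β-galactosidase complementation were preincubated 60 min with peptide (1% vehicle). IL-17A was then added at EC80 for 6–16 h at 37 °C, and chemiluminescence was read. Inhibition is relative to the EC80 and vehicle controls.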

[2] = Isoelectric point, log D and log P (SiriusT3); format: physicochemical; settings: for IP (isoelectric point): 25±1° C., 0.15 M KCl
[3] = format: physicochemical; settings: pH 7.8
Method in brief: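 Peptides dissolved in phosphate buffer pH 7.8 as 10 mM stocks (more dilute for less soluble ones) and stored at 25 °C. Content measured by reversed-phase UHPLC (C18, 0.5% formic acid water/acetonitrile gradient, DAD 220-400 nm, ESI-MS ion trap) after 1:100 dilution to 100 μM, against 100 μM standards, at T0, 3 days and 1 week.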

[4] = octanol/ISA water, read-out: logP
[5] = pH 7.4, pH 7.4, octanol/ISA water, read-out: Log D (7.4)

IC50 [1] | IP (isoelectric point) [2] | logP [2, 4] | logD [2, 5] | solubility [3] | logP ([2]; logP) | logD ([2]; pH 7.4, Log D (7.4)) | SMILES
< 1 µM | 12.5 | -4.9 | -3.59 | > 10 mM |  |  | CC[C@H](C)[C@H](NC(=O)[C@H](Cc1c[nH]c2ccccc12)NC(=O)[C@H](CCC(=O)O)NC(=O)[C@H](Cc1ccc(O)cc1)NC(=O)[C@H](CC(C)C)NC(=O)[C@H](CC(=O)O)NC(=O)[C@H](C)NC(=O)[C@@H]1CCCN1C(=O)[C@@H](NC(=O)[C@@H](NC(=O)[C@@H](NC(=O)[C@H](CCSC)NC(=O)[C@@H](NC(=O)[C@H](C)NC(=O)[C@H](CCCCN)NC(=O)[C@H](C)NC(=O)[C@H](C)NC(=O)[C@H](CCCCN)NC(=O)[C@H](CCCCN)NC(=O)[C@H](CCCNC(=N)N)NC(=O)[C@H](C)NC(C)=O)C(C)C)C(C)C)[C@@H](C)O)[C@@H](C)CC)C(=O)N[C@@H](CCC(=O)O)C(=O)N[C@@H](CCC(=O)O)C(N)=O [SEQ ID NO: 31] (Ac-ARKKAAKAVMVTIPADLYEWIEE-NH2)
< 0.4 µM | 8.05 | -0.44 | -3.68 | > 10 mM |  |  | CC[C@H](C)[C@H](NC(=O)[C@H](Cc1c[nH]c2ccccc12)NC(=O)[C@H](CCC(=O)O)NC(=O)[C@H](Cc1ccc(O)cc1)NC(=O)[C@H](CC(C)C)NC(=O)[C@H](CC(=O)O)NC(=O)[C@H](C)NC(=O)[C@@H]1CCCN1C(=O)[C@@H](NC(=O)[C@@H](NC(=O)[C@@H](NC(=O)[C@H](CCSC)NC(=O)[C@@H](NC(C)=O)C(C)C)C(C)C)[C@@H](C)O)[C@@H](C)CC)C(=O)N[C@@H](CCCNC(=N)N)C(=O)N[C@@H](CCCNC(=N)N)C(N)=O [SEQ ID NO: 17] (Ac-VMVTIPADLYEWIRR-NH2)
< 1 µM | 5.14 | -5.43 | -3.52 | > 10 mM |  |  | CC[C@H](C)[C@H](NC(=O)[C@H](Cc1c[nH]c2ccccc12)NC(=O)[C@H](CCC(=O)O)NC(=O)[C@H](Cc1ccc(O)cc1)NC(=O)[C@H](CC(C)C)NC(=O)[C@H](CC(=O)O)NC(=O)[C@H](C)NC(=O)[C@@H]1CCCN1C(=O)[C@@H](NC(=O)[C@@H](NC(=O)[C@@H](NC(=O)[C@H](CCSC)NC(=O)[C@@H](NC(=O)CNC(=O)[C@H](C)NC(=O)CNC(=O)[C@@H]1CCCN1C(=O)[C@@H](NC(C)=O)C(C)C)C(C)C)C(C)C)[C@@H](C)O)[C@@H](C)CC)C(=O)N[C@@H](CCC(=O)O)C(=O)N[C@@H](CCC(=O)O)C(N)=O [SEQ ID NO: 35] (Ac-VPGAGVMVTIPADLYEWIEE-NH2)
< 1 µM | 4.26 | 1.01 | -2.24 | ≥ 0.05 mM |  |  | CC[C@H](C)[C@H](NC(=O)[C@H](Cc1c[nH]c2ccccc12)NC(=O)[C@H](CCC(=O)O)NC(=O)[C@H](Cc1ccc(O)cc1)NC(=O)[C@H](CC(C)C)NC(=O)[C@H](CC(=O)O)NC(=O)[C@H](C)NC(=O)[C@@H]1CCCN1C(=O)[C@@H](NC(=O)[C@@H](NC(=O)[C@@H](NC(=O)[C@H](CCSC)NC(=O)[C@@H](NC(C)=O)C(C)C)C(C)C)[C@@H](C)O)[C@@H](C)CC)C(=O)N[C@@H](CCC(=O)O)C(=O)N[C@@H](CCC(=O)O)C(=O)N[C@H](C(=O)N[C@@H](Cc1c[nH]c2ccccc12)C(=O)N[C@@H](Cc1c[nH]c2ccccc12)C(=O)N[C@@H](CCC(=O)O)C(=O)N[C@H](C(=O)N[C@@H](Cc1c[nH]c2ccccc12)C(=O)N[C@@H](Cc1c[nH]c2ccccc12)C(N)=O)[C@@H](C)O)[C@@H](C)O [SEQ ID NO: 23] (Ac-VMVTIPADLYEWIEETWWETWW-NH2)
< 1 µM | 10.6 | -4.99 | -0.55 | > 10 mM |  |  | CC[C@H](C)[C@H](NC(=O)[C@H](Cc1c[nH]c2ccccc12)NC(=O)[C@H](CCC(=O)O)NC(=O)[C@H](Cc1ccc(O)cc1)NC(=O)[C@H](CC(C)C)NC(=O)[C@H](CC(=O)O)NC(=O)[C@H](C)NC(=O)[C@@H]1CCCN1C(=O)[C@@H](NC(=O)[C@@H](NC(=O)[C@@H](NC(=O)[C@H](CCSC)NC(=O)[C@@H](NC(C)=O)C(C)C)C(C)C)[C@@H](C)O)[C@@H](C)CC)C(=O)N[C@@H](CCC(=O)O)C(=O)N[C@@H](CCC(=O)O)C(=O)N[C@@H](C)C(=O)N[C@@H](CCCNC(=N)N)C(=O)N[C@@H](CCCCN)C(=O)N[C@@H](CCCCN)C(=O)N[C@@H](C)C(=O)N[C@@H](C)C(=O)N[C@@H](CCCCN)C(=O)N[C@@H](C)C(N)=O [SEQ ID NO: 21] (Ac-VMVTIPADLYEWIEEARKKAAKA-NH2)
< 0.3 µM | 8.28 |  |  | > 10 mM | -0.53 | -1.08 | CC[C@H](C)[C@H](NC(C)=O)C(=O)N[C@@H](Cc1c[nH]cn1)C(=O)N[C@H](C(=O)N[C@H](C(=O)N[C@H](C(=O)N1CCC[C@H]1C(=O)N[C@@H](C)C(=O)N[C@@H](CC(=O)O)C(=O)N[C@@H](CC(C)C)C(=O)N[C@@H](Cc1c[nH]c2ccccc12)C(=O)N[C@@H](CC(=O)O)C(=O)N[C@@H](Cc1c[nH]c2ccccc12)C(=O)N[C@H](C(=O)N[C@@H](CCCNC(=N)N)C(=O)N[C@@H](CCCCN)C(N)=O)[C@@H](C)CC)[C@@H](C)CC)[C@@H](C)O)C(C)C [SEQ ID NO: 9] (Ac-IHVTIPADLWDWIRK-NH2)
< 0.2 µM | 5.14 |  |  | > 10 mM | -5.12 | -4.06 | CC[C@H](C)[C@H](NC(C)=O)C(=O)N[C@@H](Cc1c[nH]cn1)C(=O)N[C@H](C(=O)N[C@H](C(=O)N[C@H](C(=O)N1CCC[C@H]1C(=O)N[C@@H](C)C(=O)N[C@@H](CC(=O)O)C(=O)N[C@@H](CC(C)C)C(=O)N[C@@H](Cc1c[nH]c2ccccc12)C(=O)N[C@@H](CC(=O)O)C(=O)N[C@@H](Cc1c[nH]c2ccccc12)C(=O)N[C@H](C(=O)N[C@@H](CC(N)=O)C(=O)N[C@@H](CCCCN)C(N)=O)C(C)C)[C@@H](C)CC)[C@@H](C)O)C(C)C [SEQ ID NO: 8] (Ac-IHVTIPADLWDWVNK-NH2)
< 0.1 µM | 5.19 | -0.51 | -1.26 | ≥ 1 mM |  |  | CC[C@H](C)[C@H](NC(C)=O)C(=O)N[C@@H](Cc1c[nH]cn1)C(=O)N[C@H](C(=O)N[C@H](C(=O)N[C@H](C(=O)N1CCC[C@H]1C(=O)N[C@@H](C)C(=O)N[C@@H](CCC(=O)O)C(=O)N[C@@H](CC(C)C)C(=O)N[C@@H](Cc1c[nH]c2ccccc12)C(=O)N[C@@H](CC(=O)O)C(=O)N[C@@H](Cc1c[nH]c2ccccc12)C(=O)N[C@H](C(=O)N[C@@H](CC(N)=O)C(=O)N[C@@H](CCCCN)C(N)=O)[C@@H](C)CC)[C@@H](C)CC)[C@@H](C)O)C(C)C [SEQ ID NO: 5] (Ac-IHVTIPAELWDWINK-NH2)
< 0.2 µM | 4.2 | -5.36 | -2.86 | > 10 mM |  |  | CC[C@H](C)[C@H](NC(=O)[C@H](Cc1c[nH]c2ccccc12)NC(=O)[C@H](CCC(=O)O)NC(=O)[C@H](Cc1ccc(O)cc1)NC(=O)[C@H](CC(C)C)NC(=O)[C@H](CC(=O)O)NC(=O)[C@H](C)NC(=O)[C@@H]1CCCN1C(=O)[C@@H](NC(=O)[C@@H](NC(=O)[C@@H](NC(=O)[C@H](CCSC)NC(=O)[C@@H](NC(=O)CNC(=O)[C@H](CC(=O)O)NC(=O)CNC(=O)[C@@H]1CCCN1C(=O)[C@@H](NC(C)=O)C(C)C)C(C)C)C(C)C)[C@@H](C)O)[C@@H](C)CC)C(=O)N[C@@H](CCC(=O)O)C(=O)N[C@@H](CCC(=O)O)C(N)=O [SEQ ID NO: 39] (Ac-VPGDGVMVTIPADLYEWIEE-NH2)
< 1 µM |  |  | -3.59 | < 0.05 mM |  |  | CC[C@H](C)[C@H](NC(=O)[C@H](Cc1c[nH]c2ccccc12)NC(=O)[C@H](CCC(=O)O)NC(=O)[C@H](Cc1ccc(O)cc1)NC(=O)[C@H](CC(C)C)NC(=O)[C@H](CC(=O)O)NC(=O)[C@H](C)NC(=O)[C@@H]1CCCN1C(=O)[C@@H](NC(=O)[C@@H](NC(=O)[C@@H](NC(=O)[C@H](CCSC)NC(=O)[C@@H](NC(=O)[C@H](CCC(N)=O)NC(=O)[C@H](CO)NC(=O)[C@H](Cc1c[nH]c2ccccc12)NC(=O)[C@H](CCC(=O)O)NC(=O)[C@@H](NC(=O)[C@H](Cc1c[nH]c2ccccc12)NC(=O)[C@H](Cc1c[nH]c2ccccc12)NC(=O)[C@@H](NC(=O)CNC(=O)CNC(C)=O)[C@@H](C)O)[C@@H](C)O)C(C)C)C(C)C)[C@@H](C)O)[C@@H](C)CC)C(=O)N[C@@H](CCC(=O)O)C(=O)N[C@@H](CCC(=O)O)C(N)=O [SEQ ID NO: 32] (Ac-GGTWWTEWSQVMVTIPADLYEWIEE-NH2)
< 1 µM | 5.14 | -5.43 | -3.38 | < 0.05 mM |  |  | CC[C@H](C)[C@H](NC(=O)[C@H](Cc1c[nH]c2ccccc12)NC(=O)[C@H](CCC(=O)O)NC(=O)[C@H](Cc1ccc(O)cc1)NC(=O)[C@H](CC(C)C)NC(=O)[C@H](CC(=O)O)NC(=O)[C@H](C)NC(=O)[C@@H]1CCCN1C(=O)[C@@H](NC(=O)[C@@H](NC(=O)[C@@H](NC(=O)[C@H](CCSC)NC(=O)[C@@H](NC(=O)CNC(=O)[C@H](Cc1c[nH]c2ccccc12)NC(=O)CNC(=O)[C@@H]1CCCN1C(=O)[C@@H](NC(C)=O)C(C)C)C(C)C)C(C)C)[C@@H](C)O)[C@@H](C)CC)C(=O)N[C@@H](CCC(=O)O)C(=O)N[C@@H](CCC(=O)O)C(N)=O [SEQ ID NO: 34] (Ac-VPGWGVMVTIPADLYEWIEE-NH2)
